# Where two headings read alike, the source gives them in different places.
# Tests used:
# USP1/UAF1 enzyme = USP1/UAF1 enzyme (Homo sapiens, UniProt O94782); test: USP1/UAF1 deubiquitination assay (ubiquitin-rhodamine 110 substrate); type: biochemical; conditions: read-out: USP1 IC50 (Ub-Rho)
# In short: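 Cleavage of 150 nM ubiquitin-rhodamine 110 by 0.05 nM USP1/UAF1 was followed as fluorescence (Ex480/Em540, kinetic, 30 min) in Tris-HCl pH 7.8 buffer with EDTA, BSA, DTT and Tween-20. Compounds, top 10 μM, were preincubated with enzyme 10 min; % inhibition against no-enzyme and DMSO wells gave four-parameter IC50s.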
# [1] = Liver microsomal metabolic stability, human liver microsomes (HLM); conditions: human, liver microsomes
# [2] = test system: Ub-PCNA levels in the nucleus of ES2 cells (USP1 activity); test: ES2 Ub-PCNA immunofluorescence (IF) assay; type: cell-based; conditions: Homo sapiens, ES-2; ES2 cells, 3 hours, Ub-PCNA immunofluorescence; read-out: USP1 IC50 (Ub-PCNA)
# In short: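 AC50 derived from percent Ub-PCNA-positive nuclei, positivity set by a 95% cutoff from untreated-well intensities. Readout by imaging immunofluorescence (anti-Ub-PCNA, DAPI nuclear mask) after methanol fixation. Compound exposure: 3 h at 37° C, 0.3% DMSO final, on cells plated overnight.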
# [3] = Liver microsomal metabolic stability, rat liver microsomes (RLM); conditions: rat, liver microsomes, t1/2 (min) in RLM, 1 μM compound, 1 mg/mL microsomes, NADPH
# [4] = ADME solubility determination in PBS at pH 2.0 and pH 7.4; type: physicochemical; conditions: phosphate buffered saline, 25 °C, thermodynamic from solid
# In short: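 Solubility was read by LC-MS/MS on centrifuged supernatants, calibrated to a known-concentration standard and corrected for dilution. Compound, dried down from 10 mM DMSO stock, was equilibrated 24 h at 25° C with shaking in PBS at pH 2.0 or pH 7.4.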
# [5] = pH 2, aqueous buffer, PBS pH 2.0, 25° C., read-out: Solubility at pH 2.0
# [6] = pH 7.4, aqueous buffer, PBS pH 7.4, 25° C., read-out: Solubility at pH 7.4
# Chain of USP1/UAF1 enzyme (O94782 whole entry): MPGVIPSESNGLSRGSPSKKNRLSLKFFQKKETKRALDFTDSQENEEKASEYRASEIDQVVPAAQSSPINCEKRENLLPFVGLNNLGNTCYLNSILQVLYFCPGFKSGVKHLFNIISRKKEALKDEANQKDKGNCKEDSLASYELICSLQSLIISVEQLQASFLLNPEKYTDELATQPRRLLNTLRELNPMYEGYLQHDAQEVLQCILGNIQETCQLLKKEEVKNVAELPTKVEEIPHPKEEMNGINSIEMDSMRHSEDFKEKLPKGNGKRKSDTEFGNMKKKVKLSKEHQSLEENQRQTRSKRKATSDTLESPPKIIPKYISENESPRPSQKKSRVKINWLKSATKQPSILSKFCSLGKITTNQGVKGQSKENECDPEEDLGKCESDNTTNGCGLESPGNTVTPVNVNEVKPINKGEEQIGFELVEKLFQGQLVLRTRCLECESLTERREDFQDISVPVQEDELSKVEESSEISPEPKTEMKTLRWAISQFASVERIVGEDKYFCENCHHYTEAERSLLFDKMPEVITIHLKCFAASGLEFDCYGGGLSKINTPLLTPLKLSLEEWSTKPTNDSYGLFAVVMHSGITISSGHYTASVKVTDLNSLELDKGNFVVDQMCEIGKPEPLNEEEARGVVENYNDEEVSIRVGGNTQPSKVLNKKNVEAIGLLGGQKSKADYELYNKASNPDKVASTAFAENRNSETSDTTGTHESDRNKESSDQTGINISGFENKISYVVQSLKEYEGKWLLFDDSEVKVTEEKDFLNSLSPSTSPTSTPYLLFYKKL
# Chain of USP1/UAF1 enzyme (Q8TAF3 whole entry partner): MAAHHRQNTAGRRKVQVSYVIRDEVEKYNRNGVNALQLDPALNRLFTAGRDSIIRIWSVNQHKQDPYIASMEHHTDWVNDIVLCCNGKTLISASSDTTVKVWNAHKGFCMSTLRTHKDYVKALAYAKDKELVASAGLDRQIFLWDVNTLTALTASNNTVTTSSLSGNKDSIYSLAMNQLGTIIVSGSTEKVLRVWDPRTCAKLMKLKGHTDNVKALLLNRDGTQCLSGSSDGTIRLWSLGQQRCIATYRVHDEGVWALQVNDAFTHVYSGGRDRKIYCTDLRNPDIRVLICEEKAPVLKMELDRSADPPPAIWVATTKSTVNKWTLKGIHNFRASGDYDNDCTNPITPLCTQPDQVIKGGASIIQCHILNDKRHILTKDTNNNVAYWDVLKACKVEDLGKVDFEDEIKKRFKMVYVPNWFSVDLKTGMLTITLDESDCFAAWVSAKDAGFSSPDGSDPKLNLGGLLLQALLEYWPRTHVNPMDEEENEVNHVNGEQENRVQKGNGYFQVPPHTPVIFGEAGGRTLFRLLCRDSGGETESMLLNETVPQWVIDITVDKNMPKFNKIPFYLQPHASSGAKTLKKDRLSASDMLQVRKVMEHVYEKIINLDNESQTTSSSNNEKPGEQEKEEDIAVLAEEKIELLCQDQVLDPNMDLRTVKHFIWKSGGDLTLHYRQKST
SMILES,IC50 (USP1/UAF1 enzyme),half-life at 1 μM [1],IC50 [2],half-life at 1 μM [3],"solubility at 24 h [4, 5]","solubility at 24 h [4, 6]"
"COc1ncnc(C2CC2)c1-c1cc2n(n1)CCCN2Cc1ccc(-c2nc(C(F)(F)F)cn2C)cc1 [Example 24, 2-(4-cyclopropyl-6-methoxypyrimidin-5-yl)-4-(4-(1-methyl-4-(trifluoromethyl)-1H-imidazol-2-yl)benzyl)-4,5,6,7-tetrahydropyrazolo[1,5-α]pyrimidine]",< 0.1 µM,< 25 min,< 0.1 µM,< 25 min,≥ 10 µM,≥ 10 µM
COc1ncnc(C)c1-c1cc2n(n1)CCCN2Cc1ccc(-c2nc(C(F)(F)F)cn2C)cc1 [Example 25],0.1 to 0.5 µM,< 25 min,> 0.5 µM,< 25 min,≥ 10 µM,≥ 10 µM
"COc1ncnc(C2CC2)c1-c1nn2c(c1C)N(Cc1ccc(-c3nc(C(F)(F)F)cn3C)cc1)C(=O)CC2 [Example 35, 2-(4-cyclopropyl-6-methoxypyrimidin-5-yl)-3-methyl-4-(4-(1-methyl-4-(trifluoromethyl)-1H-imidazol-2-yl)benzyl)-6,7-dihydropyrazolo[1,5-α]pyrimidin-5(4H)-one]",0.1 to 0.5 µM,< 25 min,> 0.5 µM,> 25 min,< 10 µM,< 10 µM
CC(C)n1cc(C(F)(F)F)nc1-c1ccc(CN2C(=O)CCn3nc(-c4c(Cl)cnn4C(C)C)nc32)cc1F [Example 40],< 0.1 µM,> 25 min,0.1 to 0.5 µM,> 25 min,< 10 µM,< 10 µM
CC(C)n1cc(C(F)(F)F)nc1-c1ccc(CN2C(=O)CCn3nc(-c4c(Cl)cnn4C(C)C)nc32)cc1 [Example 41],< 0.1 µM,> 25 min,< 0.1 µM,> 25 min,< 10 µM,< 10 µM
CCn1cc(C(F)(F)F)nc1-c1ccc(CN2C(=O)CCn3nc(-c4c(Cl)cnn4C(C)C)nc32)cc1F [Example 42],< 0.1 µM,> 25 min,< 0.1 µM,> 25 min,< 10 µM,< 10 µM

# The next lines start with the values.
IC50 (USP1/UAF1 enzyme),half-life at 1 μM [1],IC50 [2],half-life at 1 μM [3],"solubility at 24 h [4, 5]","solubility at 24 h [4, 6]",SMILES
< 0.1 µM,< 25 min,< 0.1 µM,< 25 min,≥ 10 µM,< 10 µM,COc1ncnc(C2CCC2)c1-c1cc2n(n1)CCC(=O)N2Cc1ccc(-c2nc(C(F)(F)F)cn2C)c(F)c1 [Example 22]
< 0.1 µM,< 25 min,< 0.1 µM,< 25 min,≥ 10 µM,< 10 µM,COc1ncnc(C2CC2)c1-c1cc2n(n1)CCCN2Cc1ccc(-n2nc(C(F)(F)F)cc2C)cc1 [Example 27]
< 0.1 µM,< 25 min,< 0.1 µM,< 25 min,≥ 10 µM,< 10 µM,CCn1cc(C(F)(F)F)nc1-c1ccc(CN2CC3(CC3)Cn3nc(-c4c(OC)ncnc4C4CC4)cc32)cc1F [Example 30]
< 0.1 µM,> 25 min,< 0.1 µM,> 25 min,< 10 µM,< 10 µM,"COc1ncnc(C2CC2)c1-c1nn2c(c1Cl)N(Cc1ccc(-c3nc(C(F)(F)F)cn3C)cc1)C(=O)CC2 [Example 33, 3-chloro-2-(4-cyclopropyl-6-methoxypyrimidin-5-yl)-4-(4-(1-methyl-4-(trifluoromethyl)-1H-imidazol-2-yl)benzyl)-6,7-dihydropyrazolo[1,5-α]pyrimidin-5(4H)-one]"
< 0.1 µM,< 25 min,< 0.1 µM,< 25 min,< 10 µM,< 10 µM,"Cc1cnn(C(C)C)c1-c1nc2n(n1)CCC(=O)N2Cc1ccc(-c2nc(C(F)(F)F)cn2C)cc1 [Example 37, 2-(1-isopropyl-4-methyl-1H-pyrazol-5-yl)-4-(4-(1-methyl-4-(trifluoromethyl)-1H-imidazol-2-yl)benzyl)-6,7-dihydro-[1,2,4]triazolo[1,5-α]pyrimidin-5(4H)-one]"
< 0.1 µM,< 25 min,< 0.1 µM,< 25 min,< 10 µM,< 10 µM,Cc1cnn(C(C)C)c1-c1nc2n(n1)CCC(=O)N2Cc1ccc(-c2nc(C(F)(F)F)cn2C(C)C)cc1 [Example 38]
< 0.1 µM,> 25 min,< 0.1 µM,> 25 min,< 10 µM,< 10 µM,CC(C)n1ncc(Cl)c1-c1nc2n(n1)CCC(=O)N2Cc1ccc(-c2nc(C(F)(F)F)cn2C)cc1 [Example 39]
